For experiment [1], the system named is bovine tubulin. Put plainly: In vitro tubulin polymerization assay (turbidity at 340 nm). The format is biochemical. The note with it: 10 μM compound, 30 minute data point, vs 1% DMSO control. The method, boiled down:
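Bovine tubulin (97%, <3% MAPs) at 3 mg/ml final in G-PEM pH 7 with 1 mM GTP and 5% glycerol, added cold to compound wells at 37° C (1% DMSO final). A340 read each minute for 30 min; percent inhibition from 30-min point versus DMSO control.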

Experiment [2] has as its system A431, human epidermoid carcinoma cells. The experiment is described as follows: Cell cycle analysis (FACS), mitotic arrest in G2/M. The note with it: Homo sapiens, A-431, 24 h, read-out: FACS Assay: concentration required to achieve inhibition in FACS assay. The format is cell-based. The essentials: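 A431 cells, 500,000/well at treatment, exposed to compounds at 0.01–1 μM final (0.1% DMSO) for 24 h. Ethanol-fixed cells RNase-treated (1 μg/ml, 37° C., 15 min), stained with propidium iodide (50 μg/ml, 30 min, RT). DNA ploidy by flow cytometry; mitotic arrest scored as G2/M accumulation.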
(In flow cytometry, cells or beads pass a laser one at a time.)

The test system of experiment [3] is A431 human cancer cell line. The experiment is described as follows: Sulphorhodamine B (SRB) growth inhibition assay. The format is cell-based. The following applies: A-431, A431 cells, 48 hours, read-out: SRB Assay: μM required to inhibit tumor cell growth by 50% (GI50). The procedure: The in vitro growth inhibition activity of the compounds was determined by the Sulphorhodamine B assay. (Skehan P, Storeng R, Scudiero D, Monks A, McMahon J, Vistica D, Warren J T, Bokesch H, Kenney S, Boyd M R. New colorimetric cytotoxicity assay for anticancer-drug screening. J Natl Cancer Inst 82, 1107-1112, 1990). Sulphorhodamine B binds to basic amino acids and stains proteins which can be eluted and detected spectrophotometically by measuring absorbance at 515 nm. The absorbance was indicative of the total protein content of the cells fixed to the walls of the plate well at a given time by trichloroacetic acid, which is a measure of the viable cell concentration.
The in vitro growth inhibition activity of the compounds was determined using a Sulphorhodamine B assay. See, Skehan et al., “New colorimetric cytotoxicity assay for anticancer-drug screening,” J. Natl. Cancer Inst., 82, 1107-1112, (1990). Sulphorhodamine B binds to basic amino acids and stains proteins which can be eluted and detected spectrophotometically by measuring absorbance at 515 nm. The absorbance indicates the total protein content of the cells fixed to the walls of the plate well at a given time by trichloroacetic acid, which is a measure of the viable cell concentration.
The reagents used in the assay can be purchased from commercial sources and include Sulphorhodamine B 0.4% (w/v) in 1% (v/v) acetic acid (Sigma Cat#S-1402); trichloroacetic acid 50% (w/v) in deionized water, working solution (Sigma Cat#T-9159); and trizma base (Tris) 10 mM working solution, pH 7.5 (Sigma Cat#T-7693).
The procedure was cared out over four days. In Day 1, the cells were seeded in a seed 10,000 cells/100 μL/well in 96 well plate in duplicates as per template. Also, seed cells in extra plate for time zero (To plate). Thereafter, the cells were incubated for 24 hours at 37° C. with 5% CO2.
On Day 2, the test compound was added to the cells at five log doses from 100 μM to 0.01 μM (Volume of addition=100 μL in 1% DMSO for all compound concentrations, Control treatment=1% DMSO).
The compounds were prepared by weighing the test compounds in 1.5 ml eppendorf tubes and calculating the volume of DMSO to be added to bring the concentration of the compound to 20 mM. Thereafter, a 20 mM stock was made and diluted by four 10 fold dilutions in DMSO to get 2, 0.2, 0.02 and 0.002 mM solutions. Each solution was diluted 100 times (10 μL to 1 ml medium) and a further addition to the culture plate (100 μL) to half the concentration of cells was made. The final well concentration for 20 mM stock was 100 μM and similarly with other test concentrations.
The cells were incubated for 48 hours at 37° C. with 5% CO2 and terminated by adding 50 μL of 50% cold trichloroacetic acid (10% to final). Thereafter, the cells were incubated for one hour at 4° C.
On Day 4, the cells were fixed to the wells by the addition of 50 μL of 50% cold trichloroacetic acid (10% to final) and incubated for 1 hour at 4° C. The supernatant was discarded by force inverting the plate into the sink followed by washing thrice with tap water and the plates are then air-dried. 100 μL SRB (0.4% in 1% acetic acid) was added to each well and the plates were incubated for 10 minutes at room temperature. Unbound dye was removed by force inverting the plate into the sink and washing thrice with 1% acetic acid. Thereafter, the plates were allowed to air dry.
Bound SRB was solubilized with 100 μL of 10 mM Tris, pH 7.4 and the absorbance was measured at a wavelength of 515 nm.
A sample set of calculations was performed as follows. The percentage growth was calculated by T-To/C-To X 100 if T>To and T-To/To X 100 if T<To, wherein T is Test OD (with compound), C is Control OD, To is Time Zero OD (cell growth at the time of drug addition). […]

From US20090048301A1 (IMCLONE SYSTEMS INCORPORATED, priority 2003, published 2009) come the findings set out here.

As a reminder, the GI50 is the concentration giving 50% growth inhibition. Consider `COc1cc(Nc2nnc(-c3cccnc3Nc3cc(OC)cc(OC)c3)[nH]2)cc(OC)c1` [Compound 1, (3,5-Dimethoxy-phenyl)-{3-[5-(3,5-dimethoxy-phenylamino)-4H-[1,2,4]triazol-3-yl]-pyridin-2-yl}-amine], for which the “Tubulin Assay: percent inhibition at 10 μM based on 30 minute data” value (“Tubulin Assay: percent inhibition” below) in experiment [1] stood at 45%. In addition, in experiment [2], the minimal effective concentration was 0.1 µM. Moreover, the 50% growth inhibitory concentration (GI50) in experiment [3] turned out to be 5.5 µM.

Turning to `COc1ccc(Nc2nnc(-c3cccnc3Nc3cc(OC)cc(OC)c3)[nH]2)cc1` [Compound 3, (3,5-Dimethoxy-phenyl)-{3-[5-(4-methoxy-phenylamino)-4H-[1,2,4]triazol-3-yl]-pyridin-2-yl}-amine], in experiment [1], the “Tubulin Assay: percent inhibition” value was 72%. In experiment [2], the minimal effective concentration is 10 µM. For the same compound, in experiment [3], the GI50 was found to be 2.5 µM.

As to `c1ccc(-c2nnc(Nc3ccc4c(c3)OCCO4)o2)c(NCc2cn[nH]c2)c1` [Compound 223, (2,3-Dihydro-benzo[1,4]dioxin-6-yl)-(5-{2-[(1H-pyrazol-4-ylmethyl)-amino]-phenyl}-[1,3,4]oxadiazol-2-yl)-amine], in experiment [1], the “Tubulin Assay: percent inhibition” value is 84%. Moreover, the minimal effective concentration in experiment [2] amounted to 0.1 µM. Also, the GI50 in experiment [3] was found to be 1.5 µM.

With `COc1cccc(Nc2nnc(-c3cccnc3Nc3cc(OC)cc(OC)c3)[nH]2)c1` [Compound 2, (3,5-Dimethoxy-phenyl)-{3-[5-(3-methoxy-phenylamino)-4H-[1,2,4]triazol-3-yl]-pyridin-2-yl}-amine], in experiment [1], the “Tubulin Assay: percent inhibition” value worked out at 80%. In addition, the minimal effective concentration in experiment [2] worked out at 0.1 µM. Besides, in experiment [3], the GI50 worked out at 0.7 µM.

`O=C1CCCN1CCCNc1ncccc1-c1nnc(Nc2ccc3c(c2)OCCO3)o1` [Compound 192, 1-(3-{3-[5-(2,3-Dihydro-benzo[1,4]dioxin-6-ylamino)-[1,3,4]oxadiazol-2-yl]-pyridin-2-ylamino}-propyl)-pyrrolidin-2-one]: in experiment [1], the “Tubulin Assay: percent inhibition” value is listed as 85%. In addition, the minimal effective concentration in experiment [2] stood at 0.1 µM. In addition, the concentration for 50% growth inhibition (GI50) in experiment [3] worked out at 0.01 µM.

As to `c1cnc(NCc2ccc3c(c2)OCO3)c(-c2nnc(Nc3ccc4c(c3)OCO4)o2)c1` [Compound 181, {3-[5-(Benzo[1,3]dioxol-5-ylamino)-[1,3,4]oxadiazol-2-yl]-pyridin-2-yl}-benzo[1,3]dioxol-5-ylmethyl-amine], the “Tubulin Assay: percent inhibition” value in experiment [1] turned out to be 76%. For the same compound, in experiment [2], the minimal effective concentration came out at 1 µM. For the same compound, the concentration for 50% growth inhibition (GI50) in experiment [3] is 0.3 µM.

On to `COc1cccc(Nc2nnc(-c3ccccc3NCc3ccncc3)[nH]2)c1` [Compound 115, (3-Methoxy-phenyl)-(5-{2-[(pyridin-4-ylmethyl)-amino]-phenyl}-4H-[1,2,4]triazol-3-yl)-amine], for which the “Tubulin Assay: percent inhibition” value in experiment [1] is given as 79%. Besides, in experiment [2], the minimal effective concentration was found to be 1 µM. Further, the GI50 in experiment [3] stood at 1.5 µM.

Take `COc1ccc(-c2nnc(-c3cccnc3NCc3cccnc3)[nH]2)cc1OC` [Compound 88, {3-[5-(3,4-Dimethoxy-phenyl)-4H-[1,2,4]triazol-3-yl]-pyridin-2-yl}-pyridin-3-ylmethyl-amine]: in experiment [1], the “Tubulin Assay: percent inhibition” value came to 29%. The minimal effective concentration in experiment [2] was determined as 10 µM. In addition, the concentration for 50% growth inhibition (GI50) in experiment [3] was 1.2 µM.

For the compound `COc1ccc(Nc2nnc(-c3cccnc3NCc3ccc4c(c3)OCO4)[nH]2)cc1` [Compound 54, Benzo[1,3]dioxol-5-ylmethyl-{3-[5-(4-methoxy-phenylamino)-4H-[1,2,4]triazol-3-yl]-pyridin-2-yl}-amine], the “Tubulin Assay: percent inhibition” value in experiment [1] came out at 38%. Also, the minimal effective concentration in experiment [2] worked out at 10 µM. Besides, in experiment [3], the GI50 came to 7.5 µM.

For the compound `c1cncc(CNc2ncccc2-c2nnc(Nc3ccc4c(c3)OCO4)[nH]2)c1` [Compound 31, {3-[5-(Benzo[1,3]dioxol-5-ylamino)-4H-[1,2,4]triazol-3-yl]-pyridin-2-yl}-pyridin-3-ylmethyl-amine], the “Tubulin Assay: percent inhibition” value in experiment [1] came to 49%. Further, the minimal effective concentration in experiment [2] is 1 µM. Moreover, in experiment [3], the 50% growth inhibitory concentration (GI50) turned out to be 0.25 µM.

As to `COc1cccc(Nc2nnc(-c3cccnc3Nc3ccc4cn[nH]c4c3)[nH]2)c1` [Compound 18, (1H-Indazol-6-yl)-{3-[5-(3-methoxy-phenylamino)-4H-[1,2,4]triazol-3-yl]-pyridin-2-yl}-amine], the “Tubulin Assay: percent inhibition” value in experiment [1] stood at 70%. In addition, the minimal effective concentration in experiment [2] was 1 µM. In addition, the GI50 in experiment [3] was found to be 1.5 µM.

Regarding `COc1ccc(OC)c(Nc2nnc(-c3cccnc3Nc3ccc4cn[nH]c4c3)[nH]2)c1` [Compound 20, {3-[5-(2,5-Dimethoxy-phenylamino)-4H-[1,2,4]triazol-3-yl]-pyridin-2-yl}-(1H-indazol-6-yl)-amine], in experiment [1], the “Tubulin Assay: percent inhibition” value amounted to 44%. In addition, the minimal effective concentration in experiment [2] was found to be 10 µM. Moreover, the 50% growth inhibitory concentration (GI50) in experiment [3] came out at 0.9 µM.

Take `COc1cc(CNc2ncccc2-c2nnc(Nc3ccc4c(c3)OCO4)o2)cc(OC)c1` [Compound 182, {3-[5-(Benzo[1,3]dioxol-5-ylamino)-[1,3,4]oxadiazol-2-yl]-pyridin-2-yl}-(3,5-dimethoxy-benzyl)-amine]: in experiment [1], the “Tubulin Assay: percent inhibition” value worked out at 84%. In addition, the minimal effective concentration in experiment [2] stood at 1 µM. Further, in experiment [3], the GI50 was found to be 0.2 µM.

Turning to `COc1cccc(Nc2nnc(-c3cccnc3Nc3ccc4c(c3)OCO4)[nH]2)c1` [Compound 7, Benzo[1,3]dioxol-5-yl-{3-[5-(3-methoxy-phenylamino)-4H-[1,2,4]triazol-3-yl]-pyridin-2-yl}-amine], the “Tubulin Assay: percent inhibition” value in experiment [1] is on record as 47%. The minimal effective concentration in experiment [2] stood at 10 µM. Besides, in experiment [3], the concentration for 50% growth inhibition (GI50) is 15 µM.

In the case of `COc1cccc(Nc2nnc(-c3cccnc3Nc3cc(OC)cc(OC)c3)o2)c1` [Compound 176, (3,5-Dimethoxy-phenyl)-{3-[5-(3-methoxy-phenylamino)-[1,3,4]oxadiazol-2-yl]-pyridin-2-yl}-amine], the “Tubulin Assay: percent inhibition” value in experiment [1] worked out at 27%. The minimal effective concentration in experiment [2] came to 10 µM. The GI50 in experiment [3] came out at 40 µM.

As for `COc1cc(Nc2ncccc2-c2nnc(Nc3ccc4c(c3)OCCO4)o2)cc(OC)c1` [Compound 193, {3-[5-(2,3-Dihydro-benzo[1,4]dioxin-6-ylamino)-[1,3,4]oxadiazol-2-yl]-pyridin-2-yl}-(3,5-dimethoxy-phenyl)-amine], the “Tubulin Assay: percent inhibition” value in experiment [1] is given as 69%. Besides, in experiment [2], the minimal effective concentration was determined as 0.01 µM. Also, in experiment [3], the GI50 was determined as 0.01 µM.

In the case of `COc1cccc(-c2nnc(-c3cccnc3NCc3cccnc3)[nH]2)c1` [Compound 85, {3-[5-(3-Methoxy-phenyl)-4H-[1,2,4]triazol-3-yl]-pyridin-2-yl}-pyridin-3-ylmethyl-amine], in experiment [1], the “Tubulin Assay: percent inhibition” value was 61%. In experiment [2], the minimal effective concentration was 1 µM. Also, in experiment [3], the GI50 is 8 µM.
